In ChEMBL document CHEMBL1201862, “PubChem BioAssay data set” (2004):
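Tested at 5 concentrations; 48 h exposure; 96-well plates; endpoints linearly interpolated, else capped at highest concentration. Abbreviation: GI50, concentration required for 50% inhibition of growth.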 Calls of active or inactive are those of the source. Cut-off read from the data, not from the text of the source: active = GI50 up to about 1.1 µM and inactive = higher.

Experiments:
Assay in all cases: NCI tumour cell line growth inhibition, 48 h
MOLT-4 = tested on: MOLT-4
M14 = tested on: M14
HOP-92 = tested on: HOP-92
NCI-H522 = tested on: NCI-H522
KM12 = tested on: KM12
UACC-62 = tested on: UACC-62
SF-268 = tested on: SF-268
IGROV-1 = tested on: IGROV-1
U-251 = tested on: U-251
MDA-MB-435 = tested on: MDA-MB-435
SK-MEL-2 = tested on: SK-MEL-2
A498 = tested on: A498
NCI-H226 = tested on: NCI-H226
NCI-H460 = tested on: NCI-H460
PC-3 = tested on: PC-3
786-0 = tested on: 786-0
SK-OV-3 = tested on: SK-OV-3
OVCAR-8 = tested on: OVCAR-8
DU-145 = tested on: DU-145
SK-MEL-5 = tested on: SK-MEL-5
EKVX = tested on: EKVX
OVCAR-3 = tested on: OVCAR-3
SN12C = tested on: SN12C
SR = tested on: SR
OVCAR-4 = tested on: OVCAR-4
SNB-75 = tested on: SNB-75
MCF7 = tested on: MCF7
CCRF-CEM = tested on: CCRF-CEM
BT-549 = tested on: BT-549
NCI/ADR-RES = tested on: NCI/ADR-RES
UO-31 = tested on: UO-31
HL-60 = tested on: HL-60
UACC-257 = tested on: UACC-257
CAKI-1 = tested on: CAKI-1
K562 = tested on: K562
MDA-MB-231 = tested on: MDA-MB-231
HCC 2998 = tested on: HCC 2998
RPMI-8226 = tested on: RPMI-8226
SF-539 = tested on: SF-539
A549 = tested on: A549
SF-295 = tested on: SF-295
NCI-H23 = tested on: NCI-H23
HCT-116 = tested on: HCT-116
SW-620 = tested on: SW-620
SK-MEL-28 = tested on: SK-MEL-28
MDA-N = tested on: MDA-N
OVCAR-5 = tested on: OVCAR-5
Hs-578T = tested on: Hs-578T
COLO 205 = tested on: COLO 205
T47D = tested on: T47D
RXF 393 = tested on: RXF 393
HT-29 = tested on: HT-29
HCT-15 = tested on: HCT-15
HOP-62 = tested on: HOP-62
ACHN = tested on: ACHN
SNB-19 = tested on: SNB-19
Malme-3M = tested on: Malme-3M
TK-10 = tested on: TK-10
LOX IMVI = tested on: LOX IMVI

In the case of `CCOC(=O)c1ccc(NC(=O)O/N=C(/Cl)CC)cc1`, the GI50 (MOLT-4) is reported as 2 µM (inactive), the GI50 (M14) is reported as 2.14 µM (inactive) and the GI50 (HOP-92) is reported as 2.75 µM (inactive). For the same compound, the GI50 (NCI-H522) was 2.77 µM (inactive), the GI50 (KM12) was 18.4 µM (inactive) and the GI50 (UACC-62) was 21 µM (inactive). For the same compound, the GI50 (SF-268) was 19.2 µM (inactive), the GI50 (IGROV-1) was 18.5 µM (inactive) and the GI50 (U-251) was 17.8 µM (inactive). For the same compound, the GI50 (MDA-MB-435) was 17.7 µM (inactive), the GI50 (SK-MEL-2) was 16.4 µM (inactive) and the GI50 (A498) was 15.7 µM (inactive). The GI50 (NCI-H226) was 20.9 µM (inactive), the GI50 (NCI-H460) was 19.5 µM (inactive) and the GI50 (PC-3) was 18.8 µM (inactive). For the same compound, the GI50 (786-0) was 5.85 µM (inactive), the GI50 (SK-OV-3) was 17.9 µM (inactive) and the GI50 (OVCAR-8) was 14.9 µM (inactive). The GI50 (DU-145) was 17.4 µM (inactive), the GI50 (SK-MEL-5) was 16 µM (inactive) and the GI50 (EKVX) was 16.1 µM (inactive). For the same compound, the GI50 (OVCAR-3) was 1.83 µM (inactive), the GI50 (SN12C) was 19.9 µM (inactive) and the GI50 (SR) was 3.57 µM (inactive). The GI50 (OVCAR-4) was 5.21 µM (inactive), the GI50 (SNB-75) was 13.6 µM (inactive) and the GI50 (MCF7) was 15 µM (inactive). The GI50 (CCRF-CEM) was 1.82 µM (inactive), the GI50 (BT-549) was 19.2 µM (inactive) and the GI50 (NCI/ADR-RES) was 14 µM (inactive). The GI50 (UO-31) was 17.5 µM (inactive), the GI50 (HL-60) was 2.21 µM (inactive) and the GI50 (UACC-257) was 16.1 µM (inactive). The GI50 (CAKI-1) was 4.57 µM (inactive), the GI50 (K562) was 1.94 µM (inactive) and the GI50 (MDA-MB-231) was 19.6 µM (inactive). The GI50 (HCC 2998) was 18.1 µM (inactive), the GI50 (RPMI-8226) was 1.99 µM (inactive) and the GI50 (SF-539) was 17.6 µM (inactive). For the same compound, the GI50 (A549) was 24.8 µM (inactive), the GI50 (SF-295) was 19.5 µM (inactive) and the GI50 (NCI-H23) was 17.4 µM (inactive). For the same compound, the GI50 (HCT-116) was 8.99 µM (inactive), the GI50 (SW-620) was 1.87 µM (inactive) and the GI50 (SK-MEL-28) was 16.4 µM (inactive). For the same compound, the GI50 (MDA-N) was 16.8 µM (inactive), the GI50 (OVCAR-5) was 18.2 µM (inactive) and the GI50 (Hs-578T) was 22.8 µM (inactive). For the same compound, the GI50 (COLO 205) was 2.41 µM (inactive), the GI50 (T47D) was 7.73 µM (inactive) and the GI50 (RXF 393) was 16.9 µM (inactive). For the same compound, the GI50 (HT-29) was 18.4 µM (inactive), the GI50 (HCT-15) was 13.5 µM and the GI50 (HOP-62) was 20.4 µM (inactive). For the same compound, the GI50 (ACHN) was 9.18 µM (inactive), the GI50 (SNB-19) was 21.3 µM (inactive) and the GI50 (Malme-3M) was 4.56 µM (inactive).

For `Cc1cn(C2CC(n3cc(Cn4ccc(=O)[nH]c4=O)nn3)C(CO)O2)c(=O)[nH]c1=O` (stereo not given), the GI50 (MOLT-4) was > 100 µM (inactive), the GI50 (M14) was > 100 µM (inactive) and the GI50 (HOP-92) was > 100 µM (inactive). The GI50 (KM12) was > 100 µM (inactive), the GI50 (UACC-62) was > 100 µM (inactive) and the GI50 (SF-268) was > 100 µM (inactive). The GI50 (U-251) was > 100 µM (inactive), the GI50 (MDA-MB-435) was > 100 µM (inactive) and the GI50 (SK-MEL-2) was > 100 µM (inactive). For the same compound, the GI50 (A498) was > 100 µM (inactive), the GI50 (NCI-H226) was > 100 µM (inactive) and the GI50 (PC-3) was > 100 µM (inactive). The GI50 (SK-OV-3) was 49 µM (inactive), the GI50 (OVCAR-8) was > 100 µM (inactive) and the GI50 (DU-145) was > 100 µM (inactive). For the same compound, the GI50 (SK-MEL-5) was > 100 µM (inactive), the GI50 (OVCAR-3) was > 100 µM (inactive) and the GI50 (SN12C) was > 100 µM (inactive). The GI50 (SR) was < 0.01 µM (active), the GI50 (OVCAR-4) was > 100 µM (inactive) and the GI50 (SNB-75) was > 100 µM (inactive). The GI50 (MCF7) was > 100 µM (inactive), the GI50 (CCRF-CEM) was > 100 µM (inactive) and the GI50 (BT-549) was > 100 µM (inactive). For the same compound, the GI50 (NCI/ADR-RES) was > 100 µM (inactive), the GI50 (UO-31) was > 100 µM (inactive) and the GI50 (HL-60) was 95.1 µM (inactive). For the same compound, the GI50 (TK-10) was > 100 µM (inactive), the GI50 (UACC-257) was > 100 µM (inactive) and the GI50 (CAKI-1) was > 100 µM (inactive). For the same compound, the GI50 (MDA-MB-231) was > 100 µM (inactive), the GI50 (HCC 2998) was > 100 µM (inactive) and the GI50 (RPMI-8226) was > 100 µM (inactive). The GI50 (SF-539) was > 100 µM (inactive), the GI50 (A549) was > 100 µM (inactive) and the GI50 (SF-295) was > 100 µM (inactive). For the same compound, the GI50 (NCI-H23) was > 100 µM (inactive), the GI50 (HCT-116) was > 100 µM (inactive) and the GI50 (SW-620) was > 100 µM (inactive). For the same compound, the GI50 (SK-MEL-28) was > 100 µM (inactive), the GI50 (MDA-N) was > 100 µM (inactive) and the GI50 (OVCAR-5) was > 100 µM (inactive). For the same compound, the GI50 (Hs-578T) was > 100 µM (inactive), the GI50 (COLO 205) was > 100 µM (inactive) and the GI50 (T47D) was > 100 µM (inactive). For the same compound, the GI50 (RXF 393) was > 100 µM (inactive), the GI50 (HCT-15) was > 100 µM and the GI50 (HOP-62) was > 100 µM (inactive). The GI50 (ACHN) was > 100 µM (inactive) and the GI50 (SNB-19) was > 100 µM (inactive).

With `N=C(N)N/N=C/c1cnn(C(=N)N)c1` the GI50 (MOLT-4) was > 100 µM (inactive), the GI50 (M14) was > 100 µM (inactive) and the GI50 (HOP-92) was > 100 µM (inactive). For the same compound, the GI50 (NCI-H522) was > 100 µM (inactive), the GI50 (KM12) was 64.1 µM (inactive) and the GI50 (UACC-62) was > 100 µM (inactive). The GI50 (SF-268) was > 100 µM (inactive), the GI50 (IGROV-1) was > 100 µM (inactive) and the GI50 (U-251) was 91 µM (inactive). The GI50 (MDA-MB-435) was > 100 µM (inactive), the GI50 (A498) was > 100 µM (inactive) and the GI50 (NCI-H226) was > 100 µM (inactive). The GI50 (NCI-H460) was > 100 µM (inactive), the GI50 (PC-3) was 31.4 µM (inactive) and the GI50 (LOX IMVI) was > 100 µM (inactive). The GI50 (786-0) was > 100 µM (inactive), the GI50 (SK-OV-3) was > 100 µM (inactive) and the GI50 (OVCAR-8) was > 100 µM (inactive). For the same compound, the GI50 (DU-145) was > 100 µM (inactive), the GI50 (SK-MEL-5) was > 100 µM (inactive) and the GI50 (EKVX) was 45.7 µM (inactive). For the same compound, the GI50 (OVCAR-3) was > 100 µM (inactive), the GI50 (SN12C) was 63.7 µM (inactive) and the GI50 (SR) was > 100 µM (inactive). The GI50 (OVCAR-4) was > 100 µM (inactive), the GI50 (SNB-75) was 95.3 µM (inactive) and the GI50 (MCF7) was > 100 µM (inactive). For the same compound, the GI50 (CCRF-CEM) was > 100 µM (inactive), the GI50 (BT-549) was > 100 µM (inactive) and the GI50 (NCI/ADR-RES) was > 100 µM (inactive). For the same compound, the GI50 (UO-31) was > 100 µM (inactive), the GI50 (HL-60) was > 100 µM (inactive) and the GI50 (TK-10) was > 100 µM (inactive). For the same compound, the GI50 (UACC-257) was 57.4 µM (inactive), the GI50 (CAKI-1) was > 100 µM (inactive) and the GI50 (K562) was > 100 µM (inactive). For the same compound, the GI50 (MDA-MB-231) was > 100 µM (inactive), the GI50 (HCC 2998) was > 100 µM (inactive) and the GI50 (RPMI-8226) was > 100 µM (inactive). The GI50 (SF-539) was > 100 µM (inactive), the GI50 (A549) was > 100 µM (inactive) and the GI50 (SF-295) was > 100 µM (inactive). For the same compound, the GI50 (NCI-H23) was > 100 µM (inactive), the GI50 (HCT-116) was > 100 µM (inactive) and the GI50 (SW-620) was > 100 µM (inactive). For the same compound, the GI50 (SK-MEL-28) was > 100 µM (inactive), the GI50 (MDA-N) was > 100 µM (inactive) and the GI50 (OVCAR-5) was > 100 µM (inactive). For the same compound, the GI50 (Hs-578T) was > 100 µM (inactive), the GI50 (COLO 205) was > 100 µM (inactive) and the GI50 (T47D) was > 100 µM (inactive). The GI50 (RXF 393) was > 100 µM (inactive), the GI50 (HT-29) was > 100 µM (inactive) and the GI50 (HCT-15) was > 100 µM. For the same compound, the GI50 (HOP-62) was > 100 µM (inactive), the GI50 (ACHN) was > 100 µM (inactive) and the GI50 (SNB-19) was > 100 µM (inactive). For the same compound, the GI50 (Malme-3M) was > 100 µM (inactive).
